Measurements as given in patent publication US9149530B2, “Compositions and methods for enhancing active agent absorption” (Nexus Pharma, Inc., priority 2006, dated 2015).

System: Sprague-Dawley rats
Experiment: Blood glucose depression after intracolonic bovine pancreatic insulin given with absorption enhancer
Assay type: in vivo
Conditions: enhancer 0 mg/kg (insulin alone), rats n=3
Method: It is neutralized by 1 equivalent of sodium hydroxide. The pH is adjusted to 7-8 by 1N HCl and saturated sodium bicarbonate. Bovine pancreatic insulin (1.75 mL; Sigma, 10 mg/mL; in pH 8.2 HEPES buffer) is added and mixed by gentle swirling. The solution density is determined so that the required dose may be calculated.
The solution is then given to Sprague-Dawley rats (2-day fasting, female, 250-300 g, n=3), intracolonically. Blood samples are taken from the tail vein and glucose levels measured using an OneTouch® UltraSmart® blood glucose meter.

Substance: bovine pancreatic insulin: Bovine pancreatic insulin (Sigma, 10 mg/mL; in pH 8.2 HEPES buffer), the active agent co-administered
- Blood glucose, % of basal level (0 min): 100 % of basal level
- Blood glucose, % of basal level (30 min): 94 ± 4 % of basal level
- Blood glucose, % of basal level (60 min): 102 ± 7 % of basal level
- Blood glucose, % of basal level (90 min): 105 ± 3 % of basal level
- Blood glucose, % of basal level (120 min): 107 ± 7 % of basal level
- Blood glucose, % of basal level (150 min): 94 ± 7 % of basal level
- Blood glucose, % of basal level (180 min): 111 ± 7 % of basal level
- Blood glucose, % of basal level (210 min): 113 ± 4 % of basal level
- Blood glucose, % of basal level (240 min): 100 ± 7 % of basal level
